Entries after “also recorded” stand apart in the source; their conditions may differ.
How the values were obtained:
MCF-7 cells = test: MTT cell proliferation assay, FOXC1-overexpressing vs control cells; type: cell-based, human
Method: MCF-7 and T47D human breast cancer cell lines were obtained from the Breast Center at Baylor College of Medicine. Cells were routinely maintained in Dulbecco's modified Eagle's medium (DMEM) supplemented with 10% fetal bovine serum (FBS), 2 mM glutamine, 50 IU/ml of penicillin, 50 μg/ml of streptomycin, and 10 μg/ml insulin. Cells were kept at 37° C. in a humidified incubator with 5% CO2. Tamoxifen and 17β-estradiol were from Sigma (St Louis, Mo.). The IKK small molecule inhibitor BMS-345541 was purchased from Calbiochem (Gibbstown, N.J.). For experiments involving estradiol and tamoxifen, cells were serum-starved overnight and then stimulated with the ER ligands for different time periods prior to cell proliferation assays. Cell viability was assessed by the 3-(4,5-dimethylthiazol-2-yl)-2,5-diphenyltetrazolium (MTT) assay. Cells were seeded in 24-well plates at 30% confluence and the MTT assay was performed one, two, three and four days after treatment. For each assay, 50 μl of MTT (5 mg/ml) were added to each well and cells were incubated at 37° C. for an additional 4 h. After centrifugation, the supernatant was carefully aspirated and 300 μl of DMSO (Sigma) were added to each well. Immediately after resolubilization, all plates were scanned at 575 nm on a microplate reader. The absorbance (A) value represented the number of live cells.

[1] = system: ERα, PR, and IRS-1 in FOXC1-overexpressing MCF-7 cells; test: Immunoblotting of ERα, PR and IRS-1; type: cell-based, human; settings: 5 μM, 24 h
Method: Whole cell lysates for western blotting were generated by cell lysis buffer (50 mM Tris-HCl, pH 7.4, 150 mM NaCl, 2 mM EDTA, 1% NP-40, 10% glycerol) supplemented with a protease inhibitor cocktail (Sigma, St Louis, Mo.). Equal amounts of protein were separated by 10% SDS-PAGE and then transferred onto a nitrocellulose membrane. The remaining steps were conducted according to a standard immunoblotting protocol (Qu et al., 2009). Immunoblotting was done with polyclonal antibodies against p65, FOXC1, IRS1 (1:200; Santa Cruz Biotechnology), polyclonal antibodies against phospho-p65, p50, IκBα (1:1000; Cell Signal), or monoclonal antibodies against ERα (1:500; Novocastra Laboratories, Newcastle upon Tyne, UK), PR (1:500; DAKO, Carpinteria, Calif.). Anti-β actin (Sigma) was used at a 1:10000 dilution. After the primary antibody incubation, the membrane was again washed with PBST three times (5 min each) and then incubated with a horseradish peroxidase (HRP)-linked secondary antibody (Amersham, Piscataway, N.J.) at a dilution of 1:4000 in blocking solution. The membrane was washed and bands were visualized using chemiluminescence assays.

triple-negative patients = settings: patients were a mix of basal-like positive and negative; cited from earlier work
[2] = system: BT549 basal-like/claudin-low cells; test: Cell viability (relative survival) with increasing doses of iCRT3; type: cell-based, human; settings: BT549 (high constitutive FOXC1 expressor) compared to MCF7 (luminal) or SKBR3 (HER2) cell lines
Text: (§1) FIGS. 45A-45B show the relative survival of representative breast cancer cell lines upon inhibition of Wnt/β catenin signaling with increasing doses of the inhibitor iCRT3.

[3] = system: HS578T basal-like/claudin-low cells; test: as above; type: cell-based, human; settings: HS578T (high constitutive FOXC1 expressor) compared to MCF7 (luminal) or SKBR3 (HER2) cell lines
Text: as §1

FOXC1 expression = FOXC1 expression upon inhibition of Wnt/β catenin signaling; type: cell-based, human; settings: Wnt inhibition, dose and time dependent, particularly pronounced in BT549 mammosphere cultures
[4] = system: BT549 cancer stem cells in mammosphere culture; test: Mammosphere formation; type: cell-based, human
Text: FIGS. 47A-47B show mammosphere formation upon inhibition of Wnt/β catenin signaling by iCRT-3.
FIGS. 49A-49B show mammosphere formation upon simultaneous inhibition of Wnt/β catenin signaling by addition of iCRT-3 and inhibition of NF-κB signaling.

[5] = system: stem related genes and NF-κB signaling in BT549 mammosphere cells; test: qRT-PCR profiling of residual mammosphere cells after Wnt inhibition; type: cell-based, human
Text: FIG. 48 is a bar graph showing the fold change of mRNA expression of the stem related genes BMI-1, FOXC1, KIT, NANOG, OCT4, and SOX2 upon inhibition of Wnt/β catenin signaling by addition of iCRT-3 on day 4 (left hand bar) and day 7 (right hand bar).

[6] = system: FOXC1 expression in MDA-MB-231 basal-like/claudin-low cell line; test: FOXC1 expression upon exposure to Wnt3a; type: cell-based, human; settings: MDA-MB-231 (low constitutive FOXC1 expressor) exposed to canonical Wnt ligand
Text: FIGS. 44A-44D show the correlation between FOXC1 expression and Wnt activity upon biological and pharmacologic inhibition and stimulation with a natural ligand.

Molecule: Cc1ccc2nc(NCCN)c3ncc(C)n3c2c1 [BMS-345541]
- sensitivity of cell proliferation to NF-κB inhibition (MCF-7 cells; FOXC1-overexpressing vs vector MCF-7 cells, 5 μM): sensitized
- levels of ERα, PR, and IRS-1 [1]: elevated levels

Molecule: CC(C)C[C@H](NC(=O)[C@H](Cc1ccccc1)NC(=O)c1cnccn1)B(O)O [bortezomib]
- outcome of clinical trial (triple-negative patients): inconclusive results

Molecule: CC/C(=C(\c1ccccc1)c1ccc(OCCN(C)C)cc1)c1ccccc1 [tamoxifen]
- sensitivity of cell proliferation to antiestrogen treatment (MCF-7 cells; FOXC1-overexpressing vs control MCF-7 cells, 10^−6 M, regular medium): less sensitive

Molecule: CCc1ccc(-c2nc(CSCC(=O)NCCc3ccccc3)c(C)o2)cc1 [iCRT3, 2-[[[2-(4-ethylphenyl)-5-methyl-4-oxazolyl]methyl]thio]-N-(2-phenylethyl)acetamide]
- sensitivity to treatment (decreased cell viability) [2]: more sensitive
- sensitivity to treatment (decreased cell viability) [3]: more sensitive
- FOXC1 expression level (FOXC1 expression): decrease in FOXC1 expression level
- FOXC1 expression level (FOXC1 expression; listed as iCRT-3): decreased FOXC1 expression
- mammosphere formation ability of persisting cells ([4]; BT549, Wnt inhibition alone, after an initial 4 day incubation period): renewed enhancement of mammosphere formation ability
- mammosphere formation efficiency ([4]; BT549 cells, Wnt inhibition alone vs DMSO): reduced mammosphere formation efficiency
- FOXC1 positive cells ([5]; cells persisting after Wnt inhibition): depletion of FOXC1 positive cells
- expression of embryonic stem cell transcription factors OCT4, SOX2 and NANOG ([5]; cells persisting after Wnt inhibition (day 4, day 7)): pronounced up regulation
- NF-κB signaling (qRT-PCR based pathway activation analysis) ([5]; residual cells that withstood Wnt inhibition): marked activation of NF-κB signaling

Molecule: C[C@]12CC[C@@H]3c4ccc(O)cc4CC[C@H]3[C@@H]1CC[C@@H]2O [estradiol, 17β-estradiol]
- increase of cell growth induced by treatment (MCF-7 cells; FOXC1-overexpressing vs control MCF-7 cells, serum-starved, 10^−8 M): diminished the increase of cell growth

B1: Wnt3a: a canonical Wnt signaling ligand (protein, UniProt P56704 19-352, looked up)
Protein Wnt-3a: SYPIWWSLAVGPQYSSLGSQPILCASIPGLVPKQLRFCRNYVEIMPSVAEGIKIGIQECQHQFRGRRWNCTTVHDSLAIFGPVLDKATRESAFVHAIASAGVAFAVTRSCAEGTAAICGCSSRHQGSPGKGWKWGGCSEDIEFGGMVSREFADARENRPDARSAMNRHNNEAGRQAIASHMHLKCKCHGLSGSCEVKTCWWSQPDFRAIGDFLKDKYDSASEMVVEKHRESRGWVETLRPRYTYFKVPTERDLVYYEASPNFCEPNPETGSFGTRDRTCNVSSHGIDGCDLLCCGRGHNARAERRREKCRCVFHWCCYVSCQECTRVYDVHTCK
- FOXC1 expression [6]: increased expression of FOXC1; also recorded: increase in FOXC1 expression
